Measured values as given in BindingDB's records for doi:10.1021/jm00120a002 (Merck Sharp & Dohme Research Laboratories, 1989).

experiment: Half-maximal inhibition of [125I]gastrin binding to guinea pig gastric glands

SMILES | IC50
CC1(C(=O)NC2N=C(c3ccccc3F)c3ccccc3NC2=O)C=Cc2ccccc21 (stereo not drawn) | > 10 µM
CN1C(=O)[C@H](NC(=O)c2ccc(Cl)cc2)N=C(c2ccccc2F)c2ccccc21 | 5.2 µM
CN1C(=O)[C@@H](NC(=O)c2ccccc2Cl)N=C(c2ccccc2)c2ccccc21 | 130 µM
O=C(Cc1c[nH]c2ccccc12)NC1N=C(c2ccccc2)c2ccccc2NC1=O (stereo not drawn) | 32 µM
O=C(NC1N=C(c2ccccc2F)c2ccccc2NC1=O)c1ccccc1 (stereo not drawn) | 28 µM
CC(C)CCC(=O)N[C@H]1N=C(c2ccccc2)c2ccccc2N(C)C1=O | 130 µM
CCCCCc1ccc(C(=O)NC2N=C(c3ccccc3)c3ccccc3NC2=O)cc1 (stereo not drawn) | > 100 µM
CC(C)(C)c1ccc(C(=O)NC2N=C(c3ccccc3)c3ccccc3NC2=O)cc1 (stereo not drawn) [4-tert-Butyl-N-(2-oxo-5-phenyl-2,3-dihydro-1H-benzo[e][1,4]diazepin-3-yl)-benzamide: 0.12CHCl3] | 40 µM
COc1ccc(C(=O)NC2N=C(c3ccccc3F)c3ccccc3NC2=O)cc1 (stereo not drawn) | 5.4 µM
CN1C(=O)[C@@H](NC(=O)c2ccc(Cl)cc2)N=C(c2ccccc2F)c2ccccc21 | 0.8 µM
O=C(NC1N=C(c2ccccc2F)c2ccccc2NC1=O)c1cc2ccccc2[nH]1 (stereo not drawn) | 4.6 µM
CN(C(=O)c1cc2ccccc2[nH]1)C1N=C(c2ccccc2)c2ccccc2NC1=O (stereo not drawn) | > 10 µM

experiment: Half-maximal inhibition of [125I]CCK-33 binding to cholecystokinin receptor

SMILES | IC50
O=C1Nc2ccc(Cl)cc2C(c2ccccc2)=N[C@@H]1Cc1c[nH]c2ccccc12 | 3.4 µM
